Experimental data from US20110212100A1, “METHODS FOR MODULATING DEVELOPMENT AND EXPANSION OF IL-17 EXPRESSING CELLS” (priority 2007, published 2011).
“And” between values parts separate entries of the source, which are not always exact repeats. Identical values can stand only once.

Test system: Th17 differentiation of CD4+ CD25− T cells
Assay: Th17 differentiation (IL-17+ IFNγ− cells) of T cells activated with TGFβ plus IL-6
Assay type: cell-based, mouse
Protocol: Low doses of halofuginone (HF) were tested to determine the ability of HF to enhance Treg differentiation, while suppressing Th17 differentiation. Nave. CD4+ T cells (CD4+ CD25−) were isolated from the spleen and peripheral lymph nodes of C57B/6 mice. T cells were then activated using anti-CD3 (0.3 μg/ml) and anti-CD28 (0.5 μg/ml) antibodies either in media alone (row 1, 4), TGFβ alone (3 ng/ml—row 2, 5) or TGFβ (3 ng/ml) plus IL-6 (30 ng/ml) (row 3, 6). […] T cells were cultured for 3 days and CD25 and Foxp3 expression (Treg marker genes) was determine by FACS staining and flow cytometric analyses. Simultaneously, T cells were harvested and re-stimulated for 4 hours using phorbol myristic acetate (PMA; 10 nM), Ionomycin (1 μM) and cytokine secretion was prevented using brefeldin A (20 μg/ml). Following stimulation, the production of IL-17 and IFNγ were determined by intracellular staining and analyzed via flow cytometry.
The dose-response of HF on CD4+ T cell proliferation, activation (i.e. CD25 upregulation) and differentiation to Th1, Th2 and Th17 lineages were evaluated. Purified murine naïve CD4+ CD25− T cells were activated using anti-CD3 (0.3 μg/ml) and anti-CD28 (0.5 μg/ml) antibodies and varying amounts of HF was added to each T cell culture condition (1.25 nM-40 nM). CD4+ T cell proliferation was monitored by CFSE dilution on day 3-post activation and CD25 expression was evaluated by FACS staining 2 days after activation. For T cell differentiation experiments, naïve T cells were activated as above in the presence of Th1 (IL-12 (20 ng/ml) plus anti-IL-4 (10 μg/ml)), Th2 (IL-4 (50 ng/ml) plus anti-IFNγ (0.5 mg/ml)) or Th17 (TGFβ (3 ng/ml) plus IL-6 (30 ng/ml)) polarizing conditions plus titrating amounts of HF (1.25 nM-40 nM) or MAZ1310 (40 nM). The percentage of Th17 cells, (IL-17^+ IFNγ^−) was evaluated on day 3 following activation, whereas the abundance of Th1 cells (IFNγ^+ IL-4) and Th2 cells (IL-4^+ IFNγ^−) was determined 5 days following activation. All cytokine expression was determined by intracellular staining following PMA+Ionomycin+Brefeldin A re-stimulation and all data was normalized to control (MAZ1310)-treated cells. […] Biol., vol. 80:1-8 (2006).
Cytokines, antibodies and T cell culture: Purified CD4^+ CD25^− T cells were activated in vitro as previously described (I. M. Djuretic et al., Nat Immunol 8, 145 (2007)) using 0.3 μg/ml hamster anti-mouse CD3 (clone 145-2C11) (ATCC—Manassas, Va.) and 0.5 μg/ml hamster anti-mouse CD28 (BD Pharmingen, San Jose, Calif.). Activated cell cultures were differentiated using the following combinations of cytokines and antibodies: iTreg=recombinant human TGFβ1 (3 ng/ml; R&D systems, Minneapolis, Minn.), Th17βTGFβ1 (3 ng/ml) plus recombinant mouse IL-6 (30 ng/ml, R&D systems). Th1 and Th2 differentiation was performed as previously described. (I. M. Djuretic et al., Nat Immunol 8, 145 (2007)). Human IL-2 supernatant (National Cancer Institute) was used in culture at 0.01 U/ml and was added at 48 hours-post activation when T cells were split into tissue culture wells lacking CD3 and CD28 antibodies, with the exception of Th17 cultures that were maintained in the absence of IL-2. All reagents were added at the time of T cell activation and again at 48-hours post activation unless indicated otherwise. For some experiments, purified CD4^+ CD25^− T cells, CD8^+ T cells or B cells were labeled with 1 μM CFSE (Invitrogen) prior to activation in accordance with manufacturers instructions.
Detection of cytokine production: Cytokines secreted into media supernatant were measured using the mouse Th1/Th2 cytometric bead array (CBA, BD Pharmingen) in accordance with manufacturers instructions.

O=C(CC1NCCCC1O)Cn1cnc2cc(Br)c(Cl)cc2c1=O (racemic) [HF, 7-bromo-6-chloro-3-[3-(3-hydroxy-2-piperidinyl)-2-oxopropyl]-4(3H)-quinazolinone]
time of addition giving most pronounced inhibition of IL-17 expression, in words (10 nM HF added at indicated times after activation): most pronounced when HF was added during a 12-hour window at the start of the culture period | effect on Il17 and Il17f mRNA expression, in words (10 nM HF, 4 days, Th17 cytokine conditions): impaired expression of both Il17 and Il17f mRNA | IL-17 expression in T cells lacking Foxp3, in words (10 nM HF, Foxp3 KO naïve CD4+ T cells, TGFβ plus IL-6): strongly repressed IL-17 expression | Th17 differentiation of T cells expressing STAT3C, in words (10 nM HF, STAT3C-GFP+ cells): remained capable of differentiating into Th17 cells | Th17 differentiation of cells expressing YFP or no transgene, in words (5-10 nM HF, TAT-Cre treated T cells): strongly impaired | fold lower doses for effects on Th17 differentiation versus general inhibition of T-cell proliferation and Th1/Th2 differentiation (FIG. 7): 5- to 10 fold and ~10 fold | Th17 differentiation in T cells transduced with RORγt-expressing versus empty retroviruses, in words (MIG.RORγt vs MIG): inhibited Th17 differentiation as effectively | IC50 (Mus musculus, T-cell, in vitro, read-out: concentration for 50% inhibition of Th17 cell development): ~3 nM | concentration window of specific inhibition of Th17 differentiation (exogenously added HF, TGFbeta in the presence of IL-6): 2 to 30 nM
